Results as given in PubChem BioAssay AID330 (DTP/NCI, 2004).
Values joined by “and” are separate entries in the source; they are usually repeats but may differ in a detail not shown here. Identical values can stand only once. Toxic doses and inconclusive results are not listed. The calls were made as follows: active = survival T/C of 150% or more; inactive = T/C below 125% in these data.

Test system: P388 leukemia ip, CD2F1 mice, survival T/C
Assay: NCI In Vivo Anticancer Drug Screen. Data for tumor model P388 Leukemia (intraperitoneal) in CD2F1 (CDF1) mice
Conditions: endpoint: median survival time, higher = longer survival
How it was run: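 Mice carrying the transplanted tumor received test compound or vehicle. Survival was recorded in each group, and the value is the treated-group measurement divided by that of the vehicle-treated control group.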

[1] = dose: 60.0 mg/kg/injection, schedule: Q01DX005 (ip), vehicle: Klucel (hydroxypropylcellulose) (HPC)
[2] = dose: 120.0 mg/kg/injection, schedule: Q01DX005 (ip), vehicle: Klucel (hydroxypropylcellulose) (HPC)
[3] = dose: 60.0 mg/kg/injection, schedule: Q01DX005 (ip), vehicle: saline with Tween-80
[4] = dose: 120.0 mg/kg/injection, schedule: Q01DX005 (ip), vehicle: saline with Tween-80
[5] = dose: 50.0 mg/kg/injection, schedule: Q01DX009 (ip), vehicle: saline
[6] = dose: 100.0 mg/kg/injection, schedule: Q01DX009 (ip), vehicle: saline
[7] = dose: 200.0 mg/kg/injection, schedule: Q01DX009 (ip), vehicle: saline
[8] = dose: 100.0 mg/kg/injection, schedule: Q04DX003 (ip), vehicle: saline
[9] = dose: 200.0 mg/kg/injection, schedule: Q04DX003 (ip), vehicle: saline
[10] = dose: 50.0 mg/kg/injection, schedule: Q01DX005 (ip), vehicle: saline with Tween-80
[11] = dose: 100.0 mg/kg/injection, schedule: Q01DX005 (ip), vehicle: saline with Tween-80
[12] = dose: 200.0 mg/kg/injection, schedule: Q01DX005 (ip), vehicle: saline with Tween-80
[13] = dose: 12.5 mg/kg/injection, schedule: Q01DX009 (ip), vehicle: saline with Tween-80
[14] = dose: 25.0 mg/kg/injection, schedule: Q01DX009 (ip), vehicle: saline with Tween-80
[15] = dose: 50.0 mg/kg/injection, schedule: Q01DX009 (ip), vehicle: saline with Tween-80
[16] = dose: 100.0 mg/kg/injection, schedule: Q01DX009 (ip), vehicle: saline with Tween-80
[17] = dose: 100.0 mg/kg/injection, schedule: Q04DX002 (ip), vehicle: saline with Tween-80
[18] = dose: 200.0 mg/kg/injection, schedule: Q04DX002 (ip), vehicle: saline with Tween-80

Measured: T/C

CCOC(=O)c1ccc(NC(=O)Nc2ccc(N(C)C(C)=O)cc2)cc1
inactive: [1] 90 % of control | [2] 90 % of control | dose: 240.0 mg/kg/injection, schedule: Q01DX005 (ip), vehicle: Klucel (hydroxypropylcellulose) (HPC) 88 % of control

N#CC12CCCC(=O)N1c1ccccc1S2 (configuration not stated)
inactive: [3] 108 % of control | [4] 104 % of control | dose: 240.0 mg/kg/injection, schedule: Q01DX005 (ip), vehicle: saline with Tween-80 95 % of control

Cc1ccc(NC(=O)Oc2cc(C)c(Cl)cc2Br)cc1Cl
inactive: [5] 100 % of control | [6] 107 % of control | [7] 116 % of control

CNC(=O)OCc1ccc(NCCN(C)C)c2c(=O)c3cc(OS(=O)(=O)c4ccc(C)cc4)ccc3oc12
inactive: dose: 25.0 mg/kg/injection, schedule: Q01DX005 (ip), vehicle: water 90 % of control | dose: 50.0 mg/kg/injection, schedule: Q01DX005 (ip), vehicle: water 100 % of control | dose: 100.0 mg/kg/injection, schedule: Q01DX005 (ip), vehicle: water 102 % of control | dose: 200.0 mg/kg/injection, schedule: Q01DX005 (ip), vehicle: water 106 % of control

N.N.O=C([O-])/C=C\C(=O)[O-].[Pt]
inactive: dose: 4.38 mg/kg/injection, schedule: Q04DX002 (ip), vehicle: saline with Tween-80 117 % of control

C1CN2CCOC2O1
inactive: dose: 60.0 mg/kg/injection, schedule: Q01DX005 (ip), vehicle: saline 100 % of control | dose: 120.0 mg/kg/injection, schedule: Q01DX005 (ip), vehicle: saline 101 % of control | dose: 240.0 mg/kg/injection, schedule: Q01DX005 (ip), vehicle: saline 99 % of control

C1=NCCCCCCCN=Cc2ccccc2NCCNc2ccccc21
inactive: [8] 94 % of control | [9] 92 % of control | dose: 400.0 mg/kg/injection, schedule: Q04DX003 (ip), vehicle: saline 108 % of control

COC(=O)c1c(-c2ccccc2)c(C=O)n(C)c1C
inactive: [10] 99 % of control | [11] 98 % of control | [12] 91 % of control

COC(=O)/C=C1/C(=O)N(C)c2ccccc21
inactive: [13] 98 % of control and 102 % of control | [14] 102 % of control and 111 % of control and 90 % of control | [15] 100 % of control and 106 % of control and 92 % of control | [16] 106 % of control and 110 % of control and 113 % of control

O=C(CCBr)NCCNC(=O)CCBr
inactive: dose: 43.75 mg/kg/injection, schedule: Q01DX009 (ip), vehicle: saline 105 % of control | dose: 87.5 mg/kg/injection, schedule: Q01DX009 (ip), vehicle: saline 103 % of control | dose: 175.0 mg/kg/injection, schedule: Q01DX009 (ip), vehicle: saline 108 % of control

Cc1ccc2c(c1)C(O)C(N)CCO2 (configuration not stated)
inactive: [8] 100 % of control | [9] 102 % of control

Cc1c(-c2cccc(Cl)n2)nc2ccccc2c1C(=O)O
inactive: [17] 99 % of control | [18] 99 % of control | dose: 400.0 mg/kg/injection, schedule: Q04DX002 (ip), vehicle: saline with Tween-80 99 % of control

OCC1N2CCC(CC2)C1(O)O (configuration not stated)
inactive: dose: 100.0 mg/kg/injection, schedule: Q04DX003 (ip), vehicle: suspension in saline 96 % of control | dose: 200.0 mg/kg/injection, schedule: Q04DX003 (ip), vehicle: suspension in saline 100 % of control | dose: 400.0 mg/kg/injection, schedule: Q04DX003 (ip), vehicle: suspension in saline 106 % of control

CP1(=S)C=C(NC2CCCCC2)CC1 (configuration not stated)
inactive: dose: 12.5 mg/kg/injection, schedule: Q01DX009 (ip), vehicle: Klucel (hydroxypropylcellulose) (HPC) 99 % of control | dose: 25.0 mg/kg/injection, schedule: Q01DX009 (ip), vehicle: Klucel (hydroxypropylcellulose) (HPC) 107 % of control | dose: 50.0 mg/kg/injection, schedule: Q01DX009 (ip), vehicle: Klucel (hydroxypropylcellulose) (HPC) 110 % of control | dose: 100.0 mg/kg/injection, schedule: Q01DX009 (ip), vehicle: Klucel (hydroxypropylcellulose) (HPC) 92 % of control | dose: 200.0 mg/kg/injection, schedule: Q01DX009 (ip), vehicle: Klucel (hydroxypropylcellulose) (HPC) 95 % of control

O=[N+]([O-])c1cc2[nH]cnc2c([N+](=O)[O-])c1N1CCCCC1
inactive: dose: 25.0 mg/kg/injection, schedule: Q04DX003 (ip), vehicle: saline with Tween-80 92 % of control | dose: 50.0 mg/kg/injection, schedule: Q04DX003 (ip), vehicle: saline with Tween-80 92 % of control | dose: 100.0 mg/kg/injection, schedule: Q04DX003 (ip), vehicle: saline with Tween-80 100 % of control

Nc1ccc(Br)cc1C(=O)c1ccccc1
inactive: [13] 97 % of control | [14] 94 % of control | [15] 94 % of control | [5] 87 % of control | [6] 89 % of control | [7] 116 % of control

Cc1cc(Cl)nc2c1ccn2C1OCC(O)C(O)C1O (configuration not stated)
inactive: dose: 16.0 mg/kg/injection, schedule: Q01DX001 (ip), vehicle: saline with Tween-80 102 % of control and 107 % of control | dose: 32.0 mg/kg/injection, schedule: Q01DX001 (ip), vehicle: saline with Tween-80 98 % of control and 107 % of control | dose: 64.0 mg/kg/injection, schedule: Q01DX001 (ip), vehicle: saline with Tween-80 107 % of control

CCC(C)C(F)C(=O)O (configuration not stated)
inactive: [10] 98 % of control | [11] 88 % of control

CCOC(=O)C1=CC(Oc2cc(NS(=O)(=O)c3ccccc3)ccc2O)C(C(=O)OCC)=CC1Oc1cc(NS(=O)(=O)c2ccccc2)ccc1O (configuration not stated)
inactive: dose: 37.5 mg/kg/injection, schedule: Q01DX001 (ip), vehicle: saline with Tween-80 105 % of control | dose: 75.0 mg/kg/injection, schedule: Q01DX001 (ip), vehicle: saline with Tween-80 100 % of control | dose: 150.0 mg/kg/injection, schedule: Q01DX001 (ip), vehicle: saline with Tween-80 100 % of control

Cc1c(C)n(-c2ccccc2)c2nc(C)n(-c3ccccc3)c(=N)c12
inactive: dose: 50.0 mg/kg/injection, schedule: Q01DX005 (ip), vehicle: Klucel (hydroxypropylcellulose) (HPC) 101 % of control | dose: 100.0 mg/kg/injection, schedule: Q01DX005 (ip), vehicle: Klucel (hydroxypropylcellulose) (HPC) 100 % of control

CC1(Cc2ccccc2)N=C1c1ccccc1 (configuration not stated)
inactive: [17] 106 % of control | [18] 103 % of control

CCCCc1ccc2nc(C)cc(N=[N+]=[N-])c2c1
inactive: [3] 100 % of control | [4] 98 % of control

CC1CCC(C(C)C)C(NN)C1 (configuration not stated)
inactive: [10] 104 % of control | [11] 100 % of control | [12] 108 % of control

[Mn+2].[O-]c1ccccc1/C=N/c1ccccn1.[O-]c1ccccc1/C=N/c1ccccn1.[OH3+].[OH3+]
inactive: dose: 50.0 mg/kg/injection, schedule: Q04DX002 (ip), vehicle: saline with Tween-80 97 % of control | [17] 96 % of control | [18] 94 % of control

C1=Cc2cc(CN3CCOCC3)ccc2Nc2ccccc21
inactive: [1] 99 % of control | [2] 89 % of control

N#C/C(=C1/NC(=O)c2ccccc21)c1nc2ccccc2n1CCO
inactive: dose: 6.25 mg/kg/injection, schedule: Q01DX009 (ip), vehicle: saline with Tween-80 91 % of control | [13] 92 % of control | [14] 89 % of control | dose: 200.0 mg/kg/injection, schedule: Q01DX009 (ip), vehicle: saline with Tween-80 89 % of control

c1cc2c(ccc3c4c([nH]c32)CCCC4)cn1
inactive: [13] 101 % of control | [14] 105 % of control | [15] 99 % of control | [16] 98 % of control

OCN(CO)c1nc(CCC(Cl)(Cl)Cl)nc(N(CO)CO)n1
inactive: dose: 12.5 mg/kg/injection, schedule: Q01DX009 (ip), vehicle: distilled water + Tween-80 96 % of control | dose: 25.0 mg/kg/injection, schedule: Q01DX009 (ip), vehicle: distilled water + Tween-80 99 % of control | dose: 50.0 mg/kg/injection, schedule: Q01DX009 (ip), vehicle: distilled water + Tween-80 114 % of control | dose: 100.0 mg/kg/injection, schedule: Q01DX009 (ip), vehicle: distilled water + Tween-80 116 % of control | dose: 200.0 mg/kg/injection, schedule: Q01DX009 (ip), vehicle: distilled water + Tween-80 89 % of control
